Reference: patent US9539298B2, “Lissencephaly therapeutic agent” (OSAKA CITY UNIVERSITY, priority 2010, dated 2017)

Legend:
[1] = system: LIS1 heterozygous newborn mice; experiment: LIS1 protein in newborn mouse brains after SNJ-1945 oral administration; format: in vivo
Description: A neo(−)129S-Pafah1b1^tm2Awb/J homozygous male mouse lacking neo gene was mated with five homozygous EII-Cre transgenic female mice (FVB/N-Tg (EIIa-cre) C5379Lmgd/J, The Jackson Laboratory) by raising them in the same mouse cage. In total, six sets of mouse cages were prepared for the mating experiment. A newborn was defined at the time of delivery confirmation, which was conducted every morning. SNJ-1945 was dissolved in dimethyl sulfoxide (DMSO) at a concentration of 100 mg/ml, and orally administered using pipettes to the newborn mice in an amount of 200 μg/per gram of body weight.
To determine the effect of SNJ-1945 administration, LIS1 proteins of normal newborn mice and LIS1 heterozygous newborn mice (administered with SNJ-1945) were measured. In the SNJ-1945 administration group, the brain tissues were taken at 0 hour (immediately after the administration), 1 hour, 2 hours, 4 hours, 8 hours, 12 hours, 16 hours, 24 hours, 48 hours, and 72 hours after the administration to measure LIS1 protein, so as to determine the effect of SNJ-1945 over time. Six mice for each group were used for the measurement of LIS1 protein (n=6).
The newborn mice were killed by cutting off their heads, and the brain tissues thereof were immediately isolated. For the measurement of LIS1 protein amount, the weight of the brains was immediately measured as soon as the brains were removed.

[2] = target: m-calpain (derived from porcine kidney) (Sus scrofa, UniProt I3LQD3); experiment: Measurement of inhibitory activity against m-calpain; format: biochemical; details: casein substrate, 30° C., 60 minutes; read-out: enzyme inhibitory activities (μM) m-calpain
Sequence of m-calpain (derived from porcine kidney) (I3LQD3 entry or part of it): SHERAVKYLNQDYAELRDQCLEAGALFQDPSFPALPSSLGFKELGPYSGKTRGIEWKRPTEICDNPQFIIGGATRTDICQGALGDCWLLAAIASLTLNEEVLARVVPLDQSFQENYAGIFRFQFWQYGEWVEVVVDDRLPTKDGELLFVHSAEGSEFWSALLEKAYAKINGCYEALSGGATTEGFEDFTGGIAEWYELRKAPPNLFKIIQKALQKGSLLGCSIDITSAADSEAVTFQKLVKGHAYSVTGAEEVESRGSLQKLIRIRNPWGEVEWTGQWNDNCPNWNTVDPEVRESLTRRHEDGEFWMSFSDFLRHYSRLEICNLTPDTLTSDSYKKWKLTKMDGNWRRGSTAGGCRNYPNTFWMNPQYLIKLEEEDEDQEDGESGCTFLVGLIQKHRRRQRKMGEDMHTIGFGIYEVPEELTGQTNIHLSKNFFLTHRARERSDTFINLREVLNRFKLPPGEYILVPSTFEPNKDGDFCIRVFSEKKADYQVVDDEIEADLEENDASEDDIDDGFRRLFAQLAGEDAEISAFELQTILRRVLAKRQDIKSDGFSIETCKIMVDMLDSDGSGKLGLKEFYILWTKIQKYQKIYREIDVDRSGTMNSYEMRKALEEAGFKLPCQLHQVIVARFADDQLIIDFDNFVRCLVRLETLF
Sequence of m-calpain (derived from porcine kidney) (P04574 whole entry, further chain): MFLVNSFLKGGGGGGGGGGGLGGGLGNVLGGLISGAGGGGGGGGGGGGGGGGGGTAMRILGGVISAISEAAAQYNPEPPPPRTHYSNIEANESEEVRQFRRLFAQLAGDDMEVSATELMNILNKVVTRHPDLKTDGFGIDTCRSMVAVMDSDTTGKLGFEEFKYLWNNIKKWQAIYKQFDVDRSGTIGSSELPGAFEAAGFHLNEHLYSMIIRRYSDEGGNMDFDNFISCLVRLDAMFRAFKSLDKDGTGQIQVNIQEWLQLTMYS
Description: More specifically, 200 μL of a reaction solution containing 0.5 mg/mL casein, 50 mM Tris-HCl buffer (pH 7.4), 20 mM dithiothreitol and 1.0 nmol μ-calpain (derived from human red blood cells, Cosmo Bio Co., Ltd.) or m-calpain (derived from porcine kidney, Cosmo Bio Co., Ltd.) was added to individual 2.5 μL portions of DMSO solution containing a varying concentration of a test sample in a 96-well plate. Then, 50 μL of 20 mM aqueous calcium chloride was added thereto, and reaction was performed at 30° C. for 60 minutes. 100 μL of the reaction solution was transferred to another 96-well plate, and purified water (50 μL) and 50% aqueous solution (100 μL) of Protein Assay Dye Reagent (available from Bio-Rad Laboratories, Inc.; catalogue No. 500-600) were added thereto. […] The absorbance of a reaction mixture prepared in the same manner as mentioned above, except that a DMSO solution containing no sample was used as a control value; and the absorbance of a reaction mixture prepared in the same manner as mentioned above, except that a 1 mM aqueous EDTA solution (50 μL) was used in place of 20 mM aqueous calcium chloride, was used as a blank value. […] Inhibition rate (%){1−(measured value−blank test value)/(control value−blank test value)}×100

[3] = system: fibroblasts derived from human lissencephaly patient (Lis1 +/−); experiment: Protein quantitative analysis (western blotting) in human fibroblasts; format: cell-based; details: final SNJ-1945 concentration=200μ, 2-hour culture, FIGS. 21 and 22
Description: In a clean bench, the cells were placed in a 6-well plate in an amount of 3×10^5 cells per well and cultured for 16 hours, thereby adhering the cells to each well. The culture medium in the well was discarded, and the SNJ-1945-containing culture solution (the culture solution containing SNJ-1945-dissolved in Dimethyl Sulfoxide (Sigma, D-5879); final SNJ-1945 concentration=200μ) was added in an amount of 2 ml/well, and a 2-hour culture was performed. As a control, another culture was performed using a culture medium containing the same amount of Dimethyl Sulfoxide (Sigma, D-5879).
After 2-hour culture by adding SNJ-1945, the cells were washed twice with PBS (−), 500 μl of PBS (−), was added and the cells were scraped with a cell scraper. The scraped cells were collected to a 1.5 ml tube to be subjected to centrifugation for 5 minutes at 4° C. and 15000 rpm; the supernatant was discarded, and a cell precipitate was obtained. […]
The absorbency of the cell extract was measured, and the protein amount of the entire solution was determined. […] The absorbency at 595 nm was measured using an ARVO Sx (PerkinElmer) 96-well plate reader, and the entire protein amount was determined.
Then, SDS-PAGE was conducted. […] Based on the protein amount determined by the Bradford method, the cells were loaded to each well of the gel in an amount of 10 μg/well. […]

With COCCOCCOC(=O)N[C@@H](CC(C)C)C(=O)N[C@@H](Cc1ccccc1)C(=O)C(=O)NC1CC1 [compound 17, ((1S)-1-((((1S)-1-Benzyl-2,3-dioxo-3-(cyclopropylamino)propyl)amino)carbonyl)-3-methylbutyl)carbamic acid 5-methoxy-3-oxapentyl ester] the “LIS1 protein amount in newborn brain” value ([1]; 200 μg per gram of body weight, oral, FIG. 7) was “recovered to substantially the normal level”, the “duration of the effect on LIS1 protein after a single dose” value ([1]; 200 μg/g oral) was “continued for at least three days” and the IC50 [2] was 0.1 µM. For the same compound, the “LIS1 amount (western blotting)” value [3] was “recovered nearly to the extent of the LIS1 level” and the “amount of cytoplasmatic dynein intermediate chain (western blotting)” value [3] was “also increased”.
